# Experimental data: patent US20230106032A1, “IMIDAZOTRIAZINES ACTING ON CANCER VIA INHIBITION OF CDK12” (Bayer Aktiengesellschaft, priority 2020, published 2023)
# Columns and labels:
# Assay type in all cases: cell-based
# [1] = system: CAL-120 human breast adenocarcinoma cells; experiment: Proliferation assay CAL-120 (crystal violet); conditions: 96 h, CAL-120 cells, 4 days, read-out: Prolif-CAL-120_ IC50-[mol/l] (median)
# Experimental: (§1) Human tumour cells were originally obtained from the American Type Culture Collection (ATCC), or from the Deutsche Sammlung von Mikroorganismen und Zellkulturen (DSMZ, German Collection of Microorganisms and Cell Cultures). Cultivated tumour cells (CAL-120, human breast adenocarcinoma cells, DSMZ ACC-459; MDA-MB-231, human breast cancer cells, ATCC HTB-26) were plated at a density of 4,000 cells/well in a 96-well multititer plate in 200 microL of their respective growth medium supplemented 10% fetal calf serum. After 24 hours, the cells of one plate (zero-point plate) were stained with crystal violet (see below), while the medium of the other plates was supplemented with the test substances in various concentrations (0 micromol/L, as well as in the range of 0.01-10 micromol/L; the final concentration of the solvent dimethyl sulfoxide was adjusted to 0.1%) using a Tecan HP D300 Digital Dispenser. The cells were incubated for 4 days in the presence of test substances. Cell proliferation was determined by staining the cells with crystal violet: the cells were fixed by adding 20 microL/measuring point of an 11% glutaric aldehyde solution for 15 minutes at room temperature. After three washing cycles of the fixed cells with water, the plates were dried at room temperature. The cells were stained by adding 100 microL/measuring point of a 0.1% crystal violet solution (pH 3.0). After three washing cycles of the stained cells with water, the plates were dried at room temperature. The dye was dissolved by adding 100 microL/measuring point of a 10% acetic acid solution. The extinction was determined by photometry at a wavelength of 595 nm. The change of cell number, in percent, was calculated by normalization of the measured values to the extinction values of the zero-point plate (=0%) and the extinction of the untreated (0 μM) cells (=100%). The IC50 values (inhibitory concentration at 50% of maximal effect) were determined by means of a 4 parameter fit.
# [2] = system: MDA-MB-231 human breast cancer cells; experiment: Proliferation assay MDA-MB-231 (crystal violet); conditions: 96 h, MDA-MB-231 cells, 4 days, read-out: Prolif-MDA MB231 IC50-[mol/l] (median)
# Experimental: as §1
# CDK12 = target: T1, CDK12 (Homo sapiens, UniProt Q9NYV4); experiment: CDK12 nuclear protein level: immunofluorescence/high content analysis in CAL-120 cells; conditions: for DC50: CAL-120 cells, 24 h, nuclear CDK12 staining, read-out: CDK12 degradation IF DC50-[mol/l] (median); for (IC50 CDK12 high ATP) to (Degradation DC50 CDK12) ratio: IC50 CDK12 hATP (Table 2) divided by DC50 CDK12 IF (Table 8)
# T1 construct: endogenous in cells; host or cells: CAL-120 human breast cancer cells (DSMZ ACC 459)
# T1 sequence (Q9NYV4 whole entry): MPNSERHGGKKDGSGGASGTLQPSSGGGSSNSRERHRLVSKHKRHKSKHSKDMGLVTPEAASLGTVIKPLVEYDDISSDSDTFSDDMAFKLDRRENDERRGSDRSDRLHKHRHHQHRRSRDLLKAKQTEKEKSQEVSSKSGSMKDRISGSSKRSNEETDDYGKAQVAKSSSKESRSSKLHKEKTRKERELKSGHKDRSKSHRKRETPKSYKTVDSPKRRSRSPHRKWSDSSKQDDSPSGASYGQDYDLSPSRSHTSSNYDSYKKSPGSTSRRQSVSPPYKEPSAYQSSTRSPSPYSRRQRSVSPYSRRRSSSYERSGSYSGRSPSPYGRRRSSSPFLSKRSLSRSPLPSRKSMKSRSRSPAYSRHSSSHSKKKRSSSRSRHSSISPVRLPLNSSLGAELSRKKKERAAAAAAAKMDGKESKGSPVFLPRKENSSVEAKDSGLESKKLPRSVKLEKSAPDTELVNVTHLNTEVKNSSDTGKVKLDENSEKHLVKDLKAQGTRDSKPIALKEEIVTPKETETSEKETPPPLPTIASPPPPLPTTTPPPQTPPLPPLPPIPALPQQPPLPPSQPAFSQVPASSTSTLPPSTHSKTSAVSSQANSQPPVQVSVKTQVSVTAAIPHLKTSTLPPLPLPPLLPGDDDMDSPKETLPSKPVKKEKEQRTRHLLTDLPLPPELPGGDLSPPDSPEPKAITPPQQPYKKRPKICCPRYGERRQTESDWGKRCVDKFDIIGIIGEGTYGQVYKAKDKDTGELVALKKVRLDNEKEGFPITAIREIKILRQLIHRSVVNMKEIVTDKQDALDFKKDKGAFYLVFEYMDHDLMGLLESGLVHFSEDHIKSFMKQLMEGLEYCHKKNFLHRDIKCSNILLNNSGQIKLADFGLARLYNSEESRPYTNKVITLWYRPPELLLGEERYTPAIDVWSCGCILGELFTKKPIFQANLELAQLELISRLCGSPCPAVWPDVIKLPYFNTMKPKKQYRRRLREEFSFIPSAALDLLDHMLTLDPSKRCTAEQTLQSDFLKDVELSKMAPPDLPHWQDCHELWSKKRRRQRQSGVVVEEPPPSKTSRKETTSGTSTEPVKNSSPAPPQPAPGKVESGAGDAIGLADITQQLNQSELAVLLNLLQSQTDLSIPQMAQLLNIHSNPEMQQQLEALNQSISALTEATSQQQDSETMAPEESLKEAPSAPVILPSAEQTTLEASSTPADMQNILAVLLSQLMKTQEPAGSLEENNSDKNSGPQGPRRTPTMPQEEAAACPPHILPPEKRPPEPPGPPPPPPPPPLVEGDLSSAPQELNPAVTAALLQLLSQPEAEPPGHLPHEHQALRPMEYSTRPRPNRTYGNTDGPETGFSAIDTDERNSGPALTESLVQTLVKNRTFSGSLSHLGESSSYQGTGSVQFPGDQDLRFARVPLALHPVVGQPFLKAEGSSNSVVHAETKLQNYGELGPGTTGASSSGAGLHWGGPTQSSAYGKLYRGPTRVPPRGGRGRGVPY
# T1 sequence (O75909 whole entry partner): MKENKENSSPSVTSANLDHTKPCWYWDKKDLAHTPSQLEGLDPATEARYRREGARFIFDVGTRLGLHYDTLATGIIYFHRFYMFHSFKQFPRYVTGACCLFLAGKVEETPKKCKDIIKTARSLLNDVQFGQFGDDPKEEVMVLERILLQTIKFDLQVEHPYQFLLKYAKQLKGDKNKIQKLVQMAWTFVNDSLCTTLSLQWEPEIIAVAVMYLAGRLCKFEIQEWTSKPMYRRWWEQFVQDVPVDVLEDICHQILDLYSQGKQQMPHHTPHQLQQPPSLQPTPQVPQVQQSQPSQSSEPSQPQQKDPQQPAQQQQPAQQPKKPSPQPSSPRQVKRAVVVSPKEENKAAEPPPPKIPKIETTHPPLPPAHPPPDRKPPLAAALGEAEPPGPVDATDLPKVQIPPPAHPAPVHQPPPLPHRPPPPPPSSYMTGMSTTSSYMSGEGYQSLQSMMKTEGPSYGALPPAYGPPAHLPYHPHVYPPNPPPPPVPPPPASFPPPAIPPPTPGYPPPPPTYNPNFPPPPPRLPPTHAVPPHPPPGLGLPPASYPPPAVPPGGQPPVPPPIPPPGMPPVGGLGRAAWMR
# Experimental: In the context of the present invention, the term “DC50 CDK12” refers to the DC50 values obtained according to the assay described in this section (6) herein below, i.e. the DC50 values for the degradation of CDK12.
# CAL-120 human breast cancer cells (DSMZ ACC 459) are seeded in 1536-well microtiter plates (800 cells per well) containing 50 nanoL of compounds in Dose-Response. Control wells received DMSO or Reference Example 1. Plates are then incubated for 24 h at 37° C. in an humidified incubator and fixed with 4% PFA for 10 min. Then immunofluorescence (IF) against CDK12 (CellSignalling CDK12 Antibody #11973, rabbit, 1:100 dilution) is performed using standard IF protocols. Cells are then stained with Hoechst 33342 (Life Technologies, H-1399, 0.1 microg/ml) and imaged on an automated confocal microscopy system (e.g. Perkin Elmer Opera Phenix). Nuclear and cytoplasmic intensity as well as the nuclear/cytoplasmic intensity ratio is determined by automated image analysis using custom generated scripts (MetaXpress). Data is then transferred to Genedata Screener software, normalized to DMSO and control and DC50 values (degrading concentration to achieve 50% reduction of nuclear CDK12 staining intensity relative to controls) are reported.
Compound,IC50 [1],IC50 [2],DC50 (CDK12),(IC50 CDK12 high ATP) to (Degradation DC50 CDK12) ratio (CDK12)
"Fc1ccc2[nH]c(CNc3nc(N4CCOCC4)nn4c(Br)cnc34)nc2c1F [Example 7, 7-bromo-N-[(4,5-difluoro-1H-benzimidazol-2-yl)methyl]-2-(morpholin-4-yl)imidazo[2,1-f][1,2,4]triazin-4-amine]",8.44 nM,7.93 nM,0.992 nM,1272
"Fc1cccc2[nH]c(CNc3nc(N4CCOCC4)nn4c(Br)cnc34)nc12 [Example 12, 7-bromo-N-[(4-fluoro-1H-benzimidazol-2-yl)methyl]-2-(morpholin-4-yl)imidazo[2,1-f][1,2,4]triazin-4-amine]",49.6 nM,111 nM,4.35 nM,1084
"CN1CCN(c2nc(NCc3nc4ccccc4[nH]3)c3ncc(C(F)(F)F)n3n2)CC1 [Example 25, N-[(1H-benzimidazol-2-yl)methyl]-2-(4-methylpiperazin-1-yl)-7-(trifluoromethyl)imidazo[2,1-f][1,2,4]triazin-4-amine]",12.3 nM,13.2 nM,3.55 nM,3050
"Fc1ccc2[nH]c(CNc3nc(N4CCOCC4)nn4c(Br)cnc34)nc2c1 [Example 20, 7-bromo-N-[(5-fluoro-1H-benzimidazol-2-yl)methyl]-2-(morpholin-4-yl)imidazo[2,1-f][1,2,4]triazin-4-amine]",10.7 nM,3.73 nM,0.842 nM,4106
"Brc1cnc2c(NCc3nc4ccccc4[nH]3)nc(N3CCNCC3)nn12 [Example 8, N-[(1H-benzimidazol-2-yl)methyl]-7-bromo-2-(piperazin-1-yl)imidazo[2,1-f][1,2,4]triazin-4-amine]",3.25 nM,14.5 nM,0.527 nM,10707
"FC(F)(F)c1cnc2c(NCc3nc4ccccc4[nH]3)nc(N3CCOCC3)nn12 [Example 26, N-[(1H-benzimidazol-2-yl)methyl]-2-(morpholin-4-yl)-7-(trifluoromethyl)imidazo[2,1-f][1,2,4]triazin-4-amine]",7.11 nM,7.21 nM,4.79 nM,36

# These reach a lower IC50 [1]. Values come first.
IC50 [1],IC50 [2],DC50 (CDK12),(IC50 CDK12 high ATP) to (Degradation DC50 CDK12) ratio (CDK12),Compound
3.06 nM,4.41 nM,1.96 nM,1305,"Fc1cccc2[nH]c(CNc3nc(N4CCNCC4)nn4c(Br)cnc34)nc12 [Example 22, 7-bromo-N-[(4-fluoro-1H-benzimidazol-2-yl)methyl]-2-(piperazin-1-yl)imidazo[2,1-f][1,2,4]triazin-4-amine]"
2.01 nM,1.91 nM,1.1 nM,10,"Fc1ccc2[nH]c(CNc3nc(N4CCOCC4)nn4c(C(F)(F)F)cnc34)nc2c1F [Example 27, N-[(4,5-difluoro-1H-benzimidazol-2-yl)methyl]-2-(morpholin-4-yl)-7-(trifluoromethyl)imidazo[2,1-f][1,2,4]triazin-4-amine]"
3.05 nM,5.65 nM,1.16 nM,1790,"COc1cccc2[nH]c(CNc3nc(N4CCNCC4)nn4c(Br)cnc34)nc12 [Example 15, 7-bromo-N-[(4-methoxy-1H-benzimidazol-2-yl)methyl]-2-(piperazin-1-yl)imidazo[2,1-f][1,2,4]triazin-4-amine]"
2.33 nM,3.91 nM,0.495 nM,4066,"COc1cccc2[nH]c(CNc3nc(N4C[C@@H](C)N[C@@H](C)C4)nn4c(Br)cnc34)nc12 [Example 14, 7-bromo-2-[rel-(3R,5S)-3,5-dimethylpiperazin-1-yl]-N-[(4-methoxy-1H-benzimidazol-2-yl)methyl]imidazo[2,1-f][1,2,4]triazin-4-amine]"
0.381 nM,0.948 nM,0.111 nM,5221,"C[C@@H]1CN(c2nc(NCc3nc4c(F)c(F)ccc4[nH]3)c3ncc(Br)n3n2)C[C@H](C)N1 [Example 11, 7-bromo-N-[(4,5-difluoro-1H-benzimidazol-2-yl)methyl]-2-[rel-(3R,5S)-3,5-dimethylpiperazin-1-yl]imidazo[2,1-f][1,2,4]triazin-4-amine]"
